# Results from PubChem BioAssay (NCI).
#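 A five-concentration, 48-hour dose response in 96-well plates underlies each endpoint, interpolated linearly between surrounding concentrations. Abbreviation: GI50, concentration required for 50% inhibition of growth. Definition used: TGI = concentration required for complete inhibition of growth.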
# Columns and labels:
# Assay in all cases: NCI tumour cell line growth inhibition, 48 h
# M14 melanoma = tested on: M14 melanoma
# SK-OV-3 ovarian = tested on: SK-OV-3 ovarian
# CAKI-1 renal = tested on: CAKI-1 renal
# KM12 colon = tested on: KM12 colon
# HT29 colon = tested on: HT29 colon
# HOP-62 NSCLC = tested on: HOP-62 NSCLC
# HS 578T breast = tested on: HS 578T breast
# HCT-116 colon = tested on: HCT-116 colon
# 786-0 renal = tested on: 786-0 renal
# SR leukemia = tested on: SR leukemia
# PC-3 prostate = tested on: PC-3 prostate
# SK-MEL-28 melanoma = tested on: SK-MEL-28 melanoma
# MALME-3M melanoma = tested on: MALME-3M melanoma
# U251 CNS = tested on: U251 CNS
# SF-539 CNS = tested on: SF-539 CNS
# MDA-MB-231 breast = tested on: MDA-MB-231 breast
# TK-10 renal = tested on: TK-10 renal
# A498 renal = tested on: A498 renal
# IGROV1 ovarian = tested on: IGROV1 ovarian
# SK-MEL-5 melanoma = tested on: SK-MEL-5 melanoma
# RXF 393 renal = tested on: RXF 393 renal
# NCI-H23 lung = tested on: NCI-H23 lung
# COLO 205 colon = tested on: COLO 205 colon
# BT-549 breast = tested on: BT-549 breast
# UO-31 renal = tested on: UO-31 renal
# HL-60(TB) leukemia = tested on: HL-60(TB) leukemia
# SNB-75 CNS = tested on: SNB-75 CNS
# ACHN renal = tested on: ACHN renal
# K-562 leukemia = tested on: K-562 leukemia
# UACC-257 melanoma = tested on: UACC-257 melanoma
# DU-145 prostate = tested on: DU-145 prostate
# SK-MEL-2 melanoma = tested on: SK-MEL-2 melanoma
# OVCAR-8 ovarian = tested on: OVCAR-8 ovarian
# SN12C renal = tested on: SN12C renal
# MDA-MB-435 = tested on: MDA-MB-435
# NCI-H460 lung = tested on: NCI-H460 lung
# A549 NSCLC = tested on: A549 NSCLC
# SF-268 CNS = tested on: SF-268 CNS
# NCI/ADR-RES ovarian = tested on: NCI/ADR-RES ovarian
# OVCAR-3 ovarian = tested on: OVCAR-3 ovarian
# SF-295 CNS = tested on: SF-295 CNS
# RPMI-8226 leukemia = tested on: RPMI-8226 leukemia
# MOLT-4 leukemia = tested on: MOLT-4 leukemia
# OVCAR-4 ovarian = tested on: OVCAR-4 ovarian
# SW-620 colon = tested on: SW-620 colon
# MCF7 breast = tested on: MCF7 breast
# LOX IMVI melanoma = tested on: LOX IMVI melanoma
# HCT-15 colon = tested on: HCT-15 colon
# CCRF-CEM leukemia = tested on: CCRF-CEM leukemia
# SNB-19 CNS = tested on: SNB-19 CNS
# EKVX NSCLC = tested on: EKVX NSCLC
# NCI-H226 lung = tested on: NCI-H226 lung
# T-47D breast = tested on: T-47D breast
# NCI-H522 lung = tested on: NCI-H522 lung
# OVCAR-5 ovarian = tested on: OVCAR-5 ovarian
# HCC-2998 colon = tested on: HCC-2998 colon
# UACC-62 melanoma = tested on: UACC-62 melanoma
# HOP-92 NSCLC = tested on: HOP-92 NSCLC
smiles,measurement,setting,value
Cc1cc(I)cc(CN(C)CCCCN2CCCC2)c1O,GI50,M14 melanoma,15.1 µM
same,TGI,M14 melanoma,29.1 µM
same,GI50,SK-OV-3 ovarian,21.6 µM
same,TGI,SK-OV-3 ovarian,67.8 µM
same,GI50,CAKI-1 renal,17.5 µM
same,TGI,CAKI-1 renal,38.9 µM
same,GI50,KM12 colon,19.8 µM
same,TGI,KM12 colon,53.9 µM
same,GI50,HT29 colon,5.7 µM
same,TGI,HT29 colon,22 µM
same,GI50,HOP-62 NSCLC,16.4 µM
same,TGI,HOP-62 NSCLC,33.9 µM
same,GI50,HS 578T breast,11.5 µM
same,TGI,HS 578T breast,32.8 µM
same,GI50,HCT-116 colon,13.1 µM
same,TGI,HCT-116 colon,40 µM
same,GI50,786-0 renal,15.3 µM
same,TGI,786-0 renal,31.4 µM
same,GI50,SR leukemia,11.5 µM
same,TGI,SR leukemia,29.4 µM
same,GI50,PC-3 prostate,24.8 µM
same,TGI,PC-3 prostate,83.6 µM
same,GI50,SK-MEL-28 melanoma,13.4 µM
same,TGI,SK-MEL-28 melanoma,27.8 µM
same,GI50,MALME-3M melanoma,19.7 µM
same,TGI,MALME-3M melanoma,36.1 µM
same,GI50,U251 CNS,18.9 µM
same,TGI,U251 CNS,49.5 µM
same,GI50,SF-539 CNS,14.7 µM
same,TGI,SF-539 CNS,28.7 µM
same,GI50,MDA-MB-231 breast,18.8 µM
same,TGI,MDA-MB-231 breast,51.1 µM
same,GI50,TK-10 renal,20.8 µM
same,TGI,TK-10 renal,50.7 µM
same,GI50,A498 renal,13.4 µM
same,TGI,A498 renal,30.2 µM
same,GI50,IGROV1 ovarian,24.8 µM
same,TGI,IGROV1 ovarian,59.1 µM
same,GI50,SK-MEL-5 melanoma,12.7 µM
same,TGI,SK-MEL-5 melanoma,25.2 µM
same,GI50,RXF 393 renal,11.8 µM
same,TGI,RXF 393 renal,31.8 µM
same,GI50,NCI-H23 lung,34.7 µM
same,TGI,NCI-H23 lung,> 100 µM
same,GI50,COLO 205 colon,13.4 µM
same,TGI,COLO 205 colon,26.1 µM
same,GI50,BT-549 breast,13.6 µM
same,TGI,BT-549 breast,33.5 µM
same,GI50,UO-31 renal,28.2 µM
same,TGI,UO-31 renal,> 100 µM
same,GI50,HL-60(TB) leukemia,16 µM
same,TGI,HL-60(TB) leukemia,35.2 µM
same,GI50,SNB-75 CNS,16.5 µM
same,TGI,SNB-75 CNS,36.9 µM
same,GI50,ACHN renal,36.8 µM
same,TGI,ACHN renal,> 100 µM
same,GI50,K-562 leukemia,11.3 µM
same,TGI,K-562 leukemia,24.2 µM
same,GI50,UACC-257 melanoma,16.6 µM
same,TGI,UACC-257 melanoma,32.8 µM
same,GI50,DU-145 prostate,35.8 µM
same,TGI,DU-145 prostate,> 100 µM
same,GI50,SK-MEL-2 melanoma,18.2 µM
same,TGI,SK-MEL-2 melanoma,34.8 µM
same,GI50,OVCAR-8 ovarian,37.2 µM
same,TGI,OVCAR-8 ovarian,> 100 µM
same,GI50,SN12C renal,52.2 µM
same,TGI,SN12C renal,> 100 µM
same,GI50,MDA-MB-435,11.1 µM
same,TGI,MDA-MB-435,27.9 µM
same,GI50,NCI-H460 lung,17.3 µM
same,TGI,NCI-H460 lung,45.9 µM
same,GI50,A549 NSCLC,30.7 µM
same,TGI,A549 NSCLC,> 100 µM
same,GI50,SF-268 CNS,18.1 µM
same,TGI,SF-268 CNS,55.7 µM
same,GI50,NCI/ADR-RES ovarian,35.2 µM
same,TGI,NCI/ADR-RES ovarian,> 100 µM
same,GI50,OVCAR-3 ovarian,33.5 µM
same,TGI,OVCAR-3 ovarian,> 100 µM
same,GI50,SF-295 CNS,13.2 µM
same,TGI,SF-295 CNS,28.6 µM
same,GI50,RPMI-8226 leukemia,15.1 µM
same,TGI,RPMI-8226 leukemia,36 µM
same,GI50,MOLT-4 leukemia,15.5 µM
same,TGI,MOLT-4 leukemia,33.4 µM
same,GI50,OVCAR-4 ovarian,41.6 µM
same,TGI,OVCAR-4 ovarian,> 100 µM
same,GI50,SW-620 colon,17.2 µM
same,TGI,SW-620 colon,39.6 µM
same,GI50,MCF7 breast,16.9 µM
same,TGI,MCF7 breast,36.8 µM
same,GI50,LOX IMVI melanoma,15.5 µM
same,TGI,LOX IMVI melanoma,30.8 µM
same,GI50,HCT-15 colon,15.6 µM
same,TGI,HCT-15 colon,37.3 µM
same,GI50,CCRF-CEM leukemia,31.3 µM
same,TGI,CCRF-CEM leukemia,> 100 µM
same,GI50,SNB-19 CNS,27.8 µM
same,TGI,SNB-19 CNS,96.1 µM
same,GI50,EKVX NSCLC,34.8 µM
same,TGI,EKVX NSCLC,> 100 µM
same,GI50,NCI-H226 lung,30 µM
same,TGI,NCI-H226 lung,> 100 µM
same,GI50,T-47D breast,15.7 µM
same,TGI,T-47D breast,40.4 µM
same,GI50,NCI-H522 lung,22.4 µM
same,TGI,NCI-H522 lung,46.2 µM
same,GI50,OVCAR-5 ovarian,27.6 µM
same,TGI,OVCAR-5 ovarian,> 100 µM
same,GI50,HCC-2998 colon,18 µM
same,TGI,HCC-2998 colon,36.3 µM
same,GI50,UACC-62 melanoma,4.19 µM
same,TGI,UACC-62 melanoma,15.7 µM
same,GI50,HOP-92 NSCLC,15.3 µM
same,TGI,HOP-92 NSCLC,70.2 µM
